Results from ChEMBL document CHEMBL3286315, “Retinoic acid receptor agonist activity of naturally occurring diterpenes” (Bioorg Med Chem, 2014).
Active and inactive are the calls of the source. The rule behind the calls is not given here.

Experiments:
Format in all cases: cell-based
[1] = target: T1, Retinoic acid receptor alpha (Homo sapiens) (UniProt P10276); experiment: Agonist activity at human RARalpha expressed in HEK293 cells assessed as transcriptional activation at 1 to 100 uM after 40 hrs by luciferase reporter gene assay
T1 sequence (whole entry): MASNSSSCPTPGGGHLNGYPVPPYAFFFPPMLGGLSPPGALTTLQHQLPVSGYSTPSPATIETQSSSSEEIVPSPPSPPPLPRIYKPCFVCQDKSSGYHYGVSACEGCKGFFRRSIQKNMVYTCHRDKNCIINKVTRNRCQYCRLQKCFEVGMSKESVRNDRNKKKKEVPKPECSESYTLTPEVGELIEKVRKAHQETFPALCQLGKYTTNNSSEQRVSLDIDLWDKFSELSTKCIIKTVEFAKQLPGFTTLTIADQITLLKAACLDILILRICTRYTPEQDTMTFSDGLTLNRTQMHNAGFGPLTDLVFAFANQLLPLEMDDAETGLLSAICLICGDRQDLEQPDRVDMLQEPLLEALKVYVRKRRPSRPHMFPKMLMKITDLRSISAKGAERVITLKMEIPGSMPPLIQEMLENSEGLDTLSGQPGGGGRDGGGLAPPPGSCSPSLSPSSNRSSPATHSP

[2] = target: T1, Retinoic acid receptor alpha (Homo sapiens); experiment: Agonist activity at human RARalpha expressed in HEK293 cells assessed as transcriptional activation at 1 to 100 uM after 40 hrs by luciferase reporter gene assay in presence of RAR antagonist LE135
[3] = target: T2, Retinoic acid receptor RXR-alpha (Homo sapiens) (UniProt P19793); experiment: Agonist activity at human RXRalpha expressed in HEK293 cells assessed as transcriptional activation up to 100 uM after 40 hrs by luciferase reporter gene assay
T2 sequence (whole entry): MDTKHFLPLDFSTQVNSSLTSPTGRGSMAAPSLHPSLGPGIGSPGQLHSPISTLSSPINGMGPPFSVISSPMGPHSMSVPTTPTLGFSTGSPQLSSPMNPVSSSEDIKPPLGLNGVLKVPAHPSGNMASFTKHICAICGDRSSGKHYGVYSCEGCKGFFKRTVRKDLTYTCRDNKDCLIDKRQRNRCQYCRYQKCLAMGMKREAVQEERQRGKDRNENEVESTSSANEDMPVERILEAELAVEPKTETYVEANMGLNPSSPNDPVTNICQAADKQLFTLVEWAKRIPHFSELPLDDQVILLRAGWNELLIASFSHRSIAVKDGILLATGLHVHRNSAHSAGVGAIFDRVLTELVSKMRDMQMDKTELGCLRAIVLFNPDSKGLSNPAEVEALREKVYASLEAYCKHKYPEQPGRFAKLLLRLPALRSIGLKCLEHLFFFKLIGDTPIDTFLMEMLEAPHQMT

[4] = target: T1, Retinoic acid receptor alpha (Homo sapiens); experiment: Agonist activity at human RARalpha expressed in HEK293 cells assessed as transcriptional activation at 0.1 to 50 uM after 40 hrs by luciferase reporter gene assay
[5] = target: T3, Peroxisome proliferator-activated receptor gamma (Homo sapiens) (UniProt P37231); experiment: Agonist activity at PPARgamma (unknown origin) expressed in HEK293 cells assessed as transcriptional activation at 1 to 25 uM after 40 hrs by luciferase reporter gene assay
T3 sequence (whole entry): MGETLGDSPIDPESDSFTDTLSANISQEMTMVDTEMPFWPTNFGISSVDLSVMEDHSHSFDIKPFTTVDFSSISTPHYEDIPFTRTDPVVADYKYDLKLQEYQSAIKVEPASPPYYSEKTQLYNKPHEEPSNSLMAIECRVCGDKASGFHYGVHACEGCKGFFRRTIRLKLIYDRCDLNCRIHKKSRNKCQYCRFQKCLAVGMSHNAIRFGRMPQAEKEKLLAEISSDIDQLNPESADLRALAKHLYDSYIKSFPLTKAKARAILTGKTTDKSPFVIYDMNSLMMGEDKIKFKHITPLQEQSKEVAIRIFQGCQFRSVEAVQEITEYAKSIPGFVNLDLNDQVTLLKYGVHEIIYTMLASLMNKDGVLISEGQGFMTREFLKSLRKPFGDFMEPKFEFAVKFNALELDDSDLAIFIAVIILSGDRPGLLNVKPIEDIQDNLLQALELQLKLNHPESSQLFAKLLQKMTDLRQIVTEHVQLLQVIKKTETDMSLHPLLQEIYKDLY

[6] = target: T4, Peroxisome proliferator-activated receptor delta (Homo sapiens) (UniProt Q03181); experiment: Agonist activity at PPARdelta (unknown origin) expressed in HEK293 cells assessed as transcriptional activation at 1 to 25 uM after 40 hrs by luciferase reporter gene assay
T4 sequence (whole entry): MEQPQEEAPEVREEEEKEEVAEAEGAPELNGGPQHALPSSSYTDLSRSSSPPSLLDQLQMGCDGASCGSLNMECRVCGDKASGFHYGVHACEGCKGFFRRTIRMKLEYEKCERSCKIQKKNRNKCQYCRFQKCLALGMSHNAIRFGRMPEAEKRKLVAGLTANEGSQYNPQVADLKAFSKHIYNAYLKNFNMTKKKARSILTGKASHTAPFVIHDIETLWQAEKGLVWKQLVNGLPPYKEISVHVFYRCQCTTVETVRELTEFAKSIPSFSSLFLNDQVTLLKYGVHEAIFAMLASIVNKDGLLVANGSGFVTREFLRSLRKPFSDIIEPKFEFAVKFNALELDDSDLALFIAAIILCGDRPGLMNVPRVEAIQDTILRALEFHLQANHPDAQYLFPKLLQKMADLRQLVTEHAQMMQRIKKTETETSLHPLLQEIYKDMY

[7] = target: T5, Oxysterols receptor LXR-alpha (Homo sapiens) (UniProt Q13133); experiment: Agonist activity at LXR-alpha (unknown origin) expressed in HEK293 cells assessed as transcriptional activation at 1 to 25 uM after 40 hrs by luciferase reporter gene assay
T5 sequence (whole entry): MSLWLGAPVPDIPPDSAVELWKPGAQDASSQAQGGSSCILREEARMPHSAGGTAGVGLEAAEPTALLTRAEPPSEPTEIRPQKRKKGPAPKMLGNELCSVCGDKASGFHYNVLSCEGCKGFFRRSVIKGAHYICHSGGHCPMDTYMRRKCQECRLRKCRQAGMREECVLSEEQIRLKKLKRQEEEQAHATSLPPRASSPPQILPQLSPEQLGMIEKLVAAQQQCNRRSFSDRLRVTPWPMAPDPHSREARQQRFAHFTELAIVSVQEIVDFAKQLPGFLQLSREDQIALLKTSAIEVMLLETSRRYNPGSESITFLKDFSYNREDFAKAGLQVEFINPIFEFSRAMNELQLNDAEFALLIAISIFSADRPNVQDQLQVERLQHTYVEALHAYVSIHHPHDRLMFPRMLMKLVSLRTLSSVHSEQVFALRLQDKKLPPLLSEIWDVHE

[8] = target: T6, Retinoic acid receptor (Homo sapiens) (UniProt P13631+P10826+P10276); experiment: Activation of RAR in human HepG2 cells assessed as increase in CAR mRNA level at 10 uM after 24 hrs by RT-PCR analysis
T6 sequence (P10826 whole entry, looked up, one chain of several): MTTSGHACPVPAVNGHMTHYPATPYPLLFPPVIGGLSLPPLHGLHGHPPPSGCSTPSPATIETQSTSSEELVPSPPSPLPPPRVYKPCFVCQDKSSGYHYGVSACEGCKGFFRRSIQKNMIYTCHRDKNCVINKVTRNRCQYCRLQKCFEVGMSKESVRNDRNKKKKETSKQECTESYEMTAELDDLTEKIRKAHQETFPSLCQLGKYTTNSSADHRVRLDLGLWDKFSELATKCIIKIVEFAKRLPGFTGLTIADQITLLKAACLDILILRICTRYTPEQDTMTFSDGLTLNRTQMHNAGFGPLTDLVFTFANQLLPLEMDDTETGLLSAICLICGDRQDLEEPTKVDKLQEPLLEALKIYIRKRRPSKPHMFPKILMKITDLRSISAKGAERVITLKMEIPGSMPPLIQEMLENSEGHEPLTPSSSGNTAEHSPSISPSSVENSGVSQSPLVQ
T6 sequence (P13631 whole entry, looked up, one chain of several): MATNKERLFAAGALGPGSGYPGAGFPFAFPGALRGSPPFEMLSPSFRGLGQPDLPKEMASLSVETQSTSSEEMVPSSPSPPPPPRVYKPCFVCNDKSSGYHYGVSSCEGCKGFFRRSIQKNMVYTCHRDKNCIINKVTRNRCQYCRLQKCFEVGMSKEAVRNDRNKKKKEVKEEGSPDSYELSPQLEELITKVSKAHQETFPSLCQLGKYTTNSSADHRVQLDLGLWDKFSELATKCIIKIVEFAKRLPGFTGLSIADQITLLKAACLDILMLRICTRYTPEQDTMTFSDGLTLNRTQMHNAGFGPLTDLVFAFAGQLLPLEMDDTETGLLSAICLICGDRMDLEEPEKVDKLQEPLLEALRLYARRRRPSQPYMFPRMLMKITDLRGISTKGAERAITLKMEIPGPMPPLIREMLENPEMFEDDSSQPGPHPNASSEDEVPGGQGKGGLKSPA

[9] = system: F9; experiment: Activation of RAR in mouse F9 cells assessed as increase in CYP26A1 mRNA level at 10 uM after 48 hrs by RT-PCR analysis
[10] = system: F9; experiment: Activation of RAR in mouse F9 cells assessed as increase in CYP26A1 mRNA level at 10 uM after 48 hrs by RT-PCR analysis in presence of RAR antagonist BMS493
[11] = target: T6, Retinoic acid receptor (Homo sapiens); experiment: Induction of RAR-mediated differentiation of human HL60 cells at 1 to 25 uM after 4 days by NBT assay; conditions: HL-60
[12] = system: F9; experiment: Activation of RAR in mouse F9 cells assessed as increase in CYP26A1 mRNA level at 0.01 uM after 48 hrs by RT-PCR analysis
[13] = target: T6, Retinoic acid receptor (Homo sapiens); experiment: Induction of RAR-mediated differentiation of human HL60 cells at 1 uM after 4 days by NBT assay; conditions: HL-60

Activity [1]	Activity [2]	Activity [3]	Activity [4]	Activity [5]	Activity [6]	Activity [7]	Activity [8]	Activity [11]	Activity [13]	Compound	Activity [9]	Activity [10]	Activity [12]
Active	inactive	inactive	Active	inactive	inactive	inactive	inactive	Active		C=C[C@]1(C)C=C2CC[C@H]3[C@@](C)(CCC[C@@]3(C)C(=O)O)[C@@H]2CC1	Active	inactive	
									Active	CC1=C(/C=C/C(C)=C/C=C/C(C)=C/C(=O)O)C(C)(C)CCC1			Active
			inactive							COC(=O)[C@H](C)NC(=O)[C@]1(C)CCC[C@]2(C)c3ccc(C(C)C)cc3CC[C@@H]12			
			Active	inactive	inactive	inactive	Active		Active	C=C[C@@]1(C)C=C2CC[C@@H]3[C@](C)(CCC[C@@]3(C)C(=O)O)[C@H]2CC1	Active	inactive	
			inactive							C=C1C[C@@]23CC[C@H]4[C@@](C)(CCC[C@@]4(C)C(=O)O)[C@@H]2CC[C@]1(O)C3			
			Active	Active	inactive	inactive	Active		Active	CC(C)C1=CC2=CC[C@@H]3[C@](C)(CCC[C@@]3(C)C(=O)O)[C@H]2CC1	Active	inactive	
